Experimental data: patent publication US8268816B2, “Compounds for modulating integrin CD11b/CD18” (priority 2006, dated 2012)
One block for each compound: values may come before it.

Assays:
[1] = molecular target: T1, integrin CD11b/CD18 (Homo sapiens, UniProt P05107+P11215); experiment: no-wash cell adhesion assay for agonists: K562 CD11b/CD18 cells on fibrinogen in TBS++; format: cell-based
T1 construct: expressed in transfected cells
Description: Maxisorp microtiter plates (96- and 384-well) were coated with 1-20 μg/mL fibrinogen (Fg) ligand in PBS^++ overnight at 4° C. Subsequently, the Fg-coated wells were washed with TBS and non-specific sites were blocked by incubation with 2% non-fat milk in TBS at room temperature for 30 min. Next, the wells were washed three times with TBS and the coated microtiter plates were used in the HTS assays.
All the adhesion assays were carried out in the screening facility at the Institute of Chemistry and Cell Biology (ICCB), Harvard Medical School using the available small molecule libraries and equipment. Actimol Timtec 1 small molecule library (6,612 compounds) has been previously described (http://iccb.med.harvard.edu/screening/compound_libraries). The small molecule library is stocked in 384-well plates at −80° C. and as sealed plates, with each well's containing a unique compound dissolved in DMSO at approximately 5 mg/mL. […] Adherent cells were quantitated using either cell viability measuring reagents or automated imaging (see below).
For quantitation of adherent cells using a cell viability measuring kit (such as MTS-based CellTiter-One (Promega), CyQuant (Molecular Probes) or Luciferase-based CellTiter-Glo (Promega)), the non-adherent cells were removed by complete aspiration using an automated liquid handling machine (ELx405, Bio-Tek Instruments, VT) and the assay reagent added according to manufacturer's instructions. For automated imaging based quantitation of adherent cells, the non-adherent cells were fixed by adding a small volume of formaldehyde (1.1% v/v final concentration) and the plates were kept inverted for an additional 1 h. Upon cell fixation, the wells were washed with TBS using automated liquid handling machine (ELx405) and the adherent cells were fluorescently labeled with DAPI (0.5 μM final in TBS with 0.1% TritonX-100) and quantitated using automated microscope (see below).
CellWorx automated microscope (Cellomics, Pa.) was set at 0.3 s exposure using DAPI filter set to capture 1-3 images per well. […] Data output files were analyzed using MS Excel. […]

[2] = test system: thioglycolate-induced peritonitis mouse model; experiment: thioglycolate-induced peritonitis, neutrophil influx into the peritoneum; format: in vivo, C57BL6 mice; conditions: 4 μg i.v. about 5 min after i.p. 4% thioglycolate, lavage at 12 h, flow cytometry
Description: The wild-type (WT) C57BL6 mice of approximately six weeks of age were purchased from Charles River Labs (Boston, Mass.). Mice were injected intraperitoneally with 1 mL of 4% w/v sterile thioglycolate (TG) (Sigma, St. Louis, […].) in PBS. Control mice were injected with PBS alone. Approximately five minutes after TG injection, 4 μg each of compounds IMB-8, -6 or -11 were administered in 0.5 mL PBS through a tail vein injection. Twelve hours post-injection, the percentage of infiltrated neutrophils in the peritoneal lavage was determined using flow cytometry. Cells from the lavage fluid were labeled with FITC-labeled anti-mouse GR1 and PE-labeled anti-mouse CD11b antibodies (BD Pharmingen, Jan Jose, Calif.) and analyzed using FACS Calibur flow cytometer.

[3] = molecular target: T2, integrin CD11a/CD18 (Homo sapiens, UniProt P05107+P20701); experiment: adhesion of K562 CD11a/CD18 cells to ICAM1-Fc in TBS++; format: cell-based; conditions: dose-response, increasing amounts of small molecule
T2 construct: expressed in transfected cells; host or cells: K562 cells stably expressing CD11a/CD18
T2 sequence (P20701 26-1170): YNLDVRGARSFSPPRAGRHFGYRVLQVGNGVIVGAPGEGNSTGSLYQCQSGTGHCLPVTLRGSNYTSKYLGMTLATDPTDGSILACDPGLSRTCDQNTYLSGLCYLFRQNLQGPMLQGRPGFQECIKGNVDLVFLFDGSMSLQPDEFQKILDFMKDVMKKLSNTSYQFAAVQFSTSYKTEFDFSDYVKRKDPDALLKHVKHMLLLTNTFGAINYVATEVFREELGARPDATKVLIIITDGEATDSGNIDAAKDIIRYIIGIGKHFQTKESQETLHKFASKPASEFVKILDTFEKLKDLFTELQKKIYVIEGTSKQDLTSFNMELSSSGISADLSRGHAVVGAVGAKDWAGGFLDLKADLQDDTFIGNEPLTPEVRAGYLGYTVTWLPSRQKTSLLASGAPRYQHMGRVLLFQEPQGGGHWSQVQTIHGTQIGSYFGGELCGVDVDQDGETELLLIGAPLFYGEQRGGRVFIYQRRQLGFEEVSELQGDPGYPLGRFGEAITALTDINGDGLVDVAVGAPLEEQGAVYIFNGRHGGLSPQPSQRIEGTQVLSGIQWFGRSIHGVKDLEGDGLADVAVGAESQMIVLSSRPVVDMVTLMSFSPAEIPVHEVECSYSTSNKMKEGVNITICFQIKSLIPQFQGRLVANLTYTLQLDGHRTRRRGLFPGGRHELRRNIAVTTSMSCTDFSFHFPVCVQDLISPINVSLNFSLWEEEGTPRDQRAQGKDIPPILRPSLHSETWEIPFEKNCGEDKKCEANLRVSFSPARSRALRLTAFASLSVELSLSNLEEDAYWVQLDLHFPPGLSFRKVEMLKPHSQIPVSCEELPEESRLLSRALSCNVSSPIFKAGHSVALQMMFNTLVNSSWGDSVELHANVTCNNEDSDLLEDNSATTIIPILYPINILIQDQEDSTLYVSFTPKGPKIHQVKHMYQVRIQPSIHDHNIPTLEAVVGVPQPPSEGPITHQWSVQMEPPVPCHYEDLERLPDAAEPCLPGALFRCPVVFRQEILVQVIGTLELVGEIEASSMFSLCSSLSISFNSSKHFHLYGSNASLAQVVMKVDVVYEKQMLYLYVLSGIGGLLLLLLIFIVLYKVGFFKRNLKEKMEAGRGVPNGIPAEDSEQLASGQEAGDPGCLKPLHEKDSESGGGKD
T2 sequence (P05107 23-769): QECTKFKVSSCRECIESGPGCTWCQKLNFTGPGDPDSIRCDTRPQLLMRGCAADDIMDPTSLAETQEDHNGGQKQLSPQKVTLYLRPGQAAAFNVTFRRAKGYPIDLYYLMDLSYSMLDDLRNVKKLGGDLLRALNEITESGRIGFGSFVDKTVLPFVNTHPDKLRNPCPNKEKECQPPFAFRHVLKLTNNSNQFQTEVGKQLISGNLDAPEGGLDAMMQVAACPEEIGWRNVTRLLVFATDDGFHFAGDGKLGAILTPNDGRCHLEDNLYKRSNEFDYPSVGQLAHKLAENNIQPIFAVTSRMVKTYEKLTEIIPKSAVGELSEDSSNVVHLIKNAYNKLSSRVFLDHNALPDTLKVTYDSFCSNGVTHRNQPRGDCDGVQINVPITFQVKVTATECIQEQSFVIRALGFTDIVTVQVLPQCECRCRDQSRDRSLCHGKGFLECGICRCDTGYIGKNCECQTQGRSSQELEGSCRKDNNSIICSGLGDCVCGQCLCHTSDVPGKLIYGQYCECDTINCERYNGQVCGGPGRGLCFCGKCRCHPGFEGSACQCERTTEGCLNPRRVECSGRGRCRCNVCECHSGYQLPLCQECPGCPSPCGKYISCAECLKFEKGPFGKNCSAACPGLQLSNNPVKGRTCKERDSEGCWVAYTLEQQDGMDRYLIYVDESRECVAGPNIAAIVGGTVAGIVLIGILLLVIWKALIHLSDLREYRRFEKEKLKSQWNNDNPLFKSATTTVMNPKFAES
Description: Maxisorp microtiter plates (384-well) were coated with 1-20 μg/mL fibrinogen (Fg), 4 μg/mL iC3b or 0.375 μg/mL ICAM1-Fc ligands in PBS^++ overnight at 4° C.
For the adhesion assay in 384-well plates, the K562 cells were washed with TBS and cells (30,000/well) were transferred to the ligand-coated wells (Fg for CD11b/CD18 and ICAM1-Fc (R&D Systems, Minneapolis, Minn.) for CD11a/CD18) of microtiter plates in the assay buffer (TBS containing 1 mM each of Ca^2+ and Mg^2+ (TBS^++). Compounds were transferred to each well and the assay plates were incubated at 37° C. in the presence of small molecule compounds and were incubated with small molecules for 30 min. In order to dislodge the non-adherent cell, the assay plates were gently inverted and kept in the inverted position for 20 min at room temperature. Adherent cells were quantified using either cell viability measuring reagents or automated imaging (see below).

T1 sequence (P05107 23-769, other chains not shown): as the sequence (P05107 23-769) above

EC50 ([1]; secondary screen, read-out: EC50, concentration required for half-maximal increase in cell-adhesion): ~6.7 µM
SMILES: N=C1SC(=Cc2ccco2)C(=O)N1c1nccs1 [Compound 9]

selectivity for integrin CD11b/CD18 over integrin CD11a/CD18 in cell adhesion ([1]; K562 CD11b/CD18 on fibrinogen versus K562 CD11a/CD18 on ICAM1): selectively increased adhesion
SMILES: O=C1CSC(NC(=O)N2c3ccccc3Sc3ccccc32)=N1 [Compound 11]
neutrophil influx into the peritoneum due to TG injection [2]: reduce leukocyte recruitment
neutrophil influx into the peritoneum due to TG injection ([2]; listed as compound 11): remarkable decrease

adhesion of K562 cells stably expressing integrin CD11a/CD18 to ICAM1 [3]: increased equally well the adhesion
adhesion of K562 cells stably expressing integrin CD11b/CD18 to fibrinogen ([1]; dose-response, increasing amounts of small molecule, TBS++): increased equally well the adhesion
SMILES: Cc1ccccc1N1C(=O)/C(=C/C=C/c2ccccc2)SC1=S [IMB-10, reference compound]
